Read-outs that look alike come from different tables or passages of the source.
Tests used:
[1] = test system: HT-29 colorectal adenocarcinoma cells; assay: Cell cycle analysis (PI, flow cytometry); assay type: cell-based, human; details: HT-29, 24 h; Les-6547 5 μM, Les-6557 10 μM
Protocol: Cell cycle analysis of HT-29 cells treated with Les-6547 (5 µM) and Les-6557 (10 µM) for 24 h was conducted utilizing a FACSCanto II flow cytometer. Following the incubation period, the cells were detached using trypsin, collected, and fixed in cold ethanol (70%) before being stored at −20 °C for up to three days. Cells were then processed for flow cytometry analysis as previously described. Fixed cells were washed with cold PBS and centrifuged at 2000 rpm for 10 min, and the supernatant was discarded. The cell pellet was resuspended in PBS with 50 μg/mL DNase-free RNase A Solution and stained with 100 μg/mL PI for 30 min at 37 °C in the dark. After washing, the cells were resuspended in PBS. Cell cycle distribution was analyzed using a BD FACSCanto II flow cytometer (10,000 events) and FACSDiva 6.1.3 software (both BD Biosciences Systems, San Jose, CA, USA), followed by analysis with FCS Express 7 software (De Novo Software, Pasadena, CA, USA). The system was calibrated using a BD Cytometer Setup and Tracking Beads (BD Biosciences, San Diego, CA, USA).

Human blood lymphocytes = assay: MTT assay; assay type: cell-based; details: for IC50: Lymphocyte, human blood lymphocytes, 72 h, M ± SD, n = 3; for decrease of viability compared to control cells: lymphocytes from a healthy donor, 100 µM
Protocol: Lymphocytes from human peripheral blood were isolated with sodium heparin (10 U/mL) as an anticoagulant. Isolation was performed through a density gradient method with the Gradisol G, following a modified procedure. Peripheral blood was mixed with Gradisol G in equal proportions (1:1) and centrifuged at 400× g for 30 min at room temperature. The cells were collected, washed in phosphate-buffered saline (PBS), and treated with a hypotonic solution to remove residual erythrocytes. Lymphocytes were activated by phytohemagglutinin-L (1 µg/mL) and cultured in RPMI-1640 medium supplemented with 20% fetal bovine serum under controlled conditions of 95% air and 5% CO2 [27].
(§1) The metabolic activity of cells exposed to the tested derivatives, doxorubicin, and DMSO, was assessed using an MTT assay according to the manufacturer’s protocol (Sigma-Aldrich, St. Louis, MO, USA). Adherent cells were seeded into 96-well plates (5000–10,000 cells in 100 µL of growth medium per well) and allowed to adhere overnight before treatment. For lymphocytes, activation with phytohemagglutinin-L (1 µg/mL) was performed for 24 h, after which they were seeded in 96-well plates at a density of 100,000 cells/well in RPMI-1640 medium supplemented with 20% FBS. The test substances, including Les-6547, Les-6557, and doxorubicin, were added to 100 µL of culture medium to achieve final concentrations of 0 µM, 0.1 µM, 1 µM, 2.5 µM, 10 µM, and 100 µM for all compounds, and the cells were further incubated for 24, 48, or 72 h. DMSO-treated cells served as the control. Then, 20 µL of MTT solution (5 mg/mL) was added and incubated for 2–4 h to allow formazan crystal formation. The formazan crystals were then solubilized by adding DMSO. The absorbance of formazan was measured at 570 nm using a ThermoScientific Evolution 201 UV-VIS spectrophotometer (ThermoFisher Scientific, Waltham, MA, USA). The control condition with 0.5% DMSO was considered 100% viability. The IC50 values for the compounds were determined using GraphPad Prism 8 and 9 software (GraphPad Software, Boston, MA, USA).

[2] = test system: HT-29 colorectal adenocarcinoma cells; assay: Apoptosis assay, FITC-Annexin V/propidium iodide flow cytometry; assay type: cell-based, human; details: HT-29, 24 h; Les-6547 5 μM, Les-6557 10 μM
Protocol: The pro-apoptotic effects of the tested compounds were assessed using the FITC Annexin V Apoptosis Detection Kit II in conjunction with a BD FACSCanto II flow cytometer (BD Biosciences, San Jose, CA, USA). The experimental procedure adhered to the manufacturer’s instructions and previously established protocols.
Initially, HT-29 cells were seeded in 6-well plates at a density of 300,000 cells per well in 2 mL of culture medium and incubated overnight to allow adherence. Subsequently, the cells were treated with Les-6547 (5 µM) and Les-6557 (10 µM) for 24 h. After exposure to the compounds, the cells were rinsed twice with cold PBS and suspended in the binding buffer provided in the kit. FITC Annexin V and propidium iodide (PI) were added to the 100 µL cell suspension, followed by 15-min incubation at room temperature, shielded from light.
After the incubation, 300 µL of binding buffer was added to each sample, and analysis was performed using the flow cytometer, with 10,000 events recorded per sample. Data were processed using FACSDiva software (version 6.1.3, BD Biosciences, San Jose, CA, USA). Calibration of the instrument was ensured using a BD Cytometer Setup and Tracking Beads (BD Biosciences, San Diego, CA, USA).

[3] = test system: DLD-1 colorectal adenocarcinoma cells; assay: MTT assay; assay type: cell-based, human; details: for IC50: Homo sapiens
Protocol: DLD-1, HaCaT, and Balb/c 3T3 cells were maintained in DMEM, while HT-29 cells were grown in McCoy’s 5A medium with 10% FBS and 1% penicillin/streptomycin. All cell lines were incubated at 37 °C in a humidified atmosphere with 5% CO2. After detaching the cells with trypsin, they were quantified using a Scepter 3.0 automated cell counter (Millipore, Burlington, MA, USA).
as §1

caspase 10 = assay: Caspase 10 activity assay (FAM-FLICA, flow cytometry) in HT-29 cells; assay type: cell-based, human; details: HT-29, 24 h; Les-6547 5 μM, Les-6557 10 μM
Protocol: Caspase activity for initiator caspases (8, 9, and 10) and executioner caspases (3/7) was evaluated using a FAM-FLICA® Caspase Assay kit (ImmunoChemistry Technologies, Bloomington, MN, USA) according to the manufacturer’s instructions, as described in previous studies. HT-29 cells were exposed to Les-6547 (5 µM) and Les-6557 (10 µM) for 24 h. Following this, the cells were harvested, washed twice with cold PBS, and resuspended in Apoptosis Wash Buffer (ImmunoChemistry Technologies, Bloomington, MN, USA) at a final concentration of 5 × 10^5 cells/mL.
Subsequently, 290 µL of the cell suspension was transferred into individual tubes, to which 10 µL of freshly prepared FLICA solution (1:5 dilution in PBS) was added. The mixture was gently pipetted and incubated for 1 h at 37 °C in the dark. After the incubation, the cells were washed twice with 2 mL of Apoptosis Wash Buffer, centrifuged, and resuspended in 300 µL of the same buffer. The prepared samples were immediately analyzed using a BD FACSCanto II flow cytometer (10,000 events). Data were processed using FACSDiva 6.1.3 software (BD Biosciences Systems, San Jose, CA, USA). Flow cytometer calibration was conducted using a BD Cytometer Setup and Tracking Beads (BD Biosciences, San Diego, CA, USA).

[4] = DLD-1, MTT, 24, 48 and 72 h, read-out: IC50 (range over incubation times)
[5] = DLD-1, MTT, 24 h, M ± SD, n = 3, read-out: IC50
[6] = DLD-1, MTT, 48 h, M ± SD, n = 3, read-out: IC50
[7] = DLD-1, MTT, 72 h, M ± SD, n = 3, read-out: IC50

O=C1C2=C(C(=O)c3c(O)cccc31)C(c1cc(Cl)ccc1O)c1sc(=O)[nH]c1S2 (stereo not shown) [Les-6547]
cells in G1 phase [1]: 25.4%
cells in G2/M phase [1]: 39.9%
cells in S phase [1]: 34.7%
IC50 (Human blood lymphocytes): > 100 µM
decrease of viability compared to control cells (Human blood lymphocytes): 25%
apoptotic cells (sum of early and late apoptotic cells) [2]: 36.2%
IC50 [3, 4]: 5.14 to 6.62 µM
IC50 [3, 5]: 5.14 ± 0.81 µM
IC50 [3, 6]: 5.17 ± 0.58 µM
IC50 [3, 7]: 6.62 ± 0.07 µM

O=C1C2=C(C(=O)c3c(O)cccc31)C(c1ccc(Cl)cc1)c1sc(=O)[nH]c1S2 (stereo not shown) [Les-6557]
Cells with active caspase 10 (caspase 10): 40.9%
cells in G1 phase [1]: 19.2%
cells in G2/M phase [1]: 28.8%
cells in S phase [1]: 51.3%
IC50 (Human blood lymphocytes): > 100 µM
decrease of viability compared to control cells (Human blood lymphocytes): 25%
apoptotic cells (sum of early and late apoptotic cells) [2]: 31.9%
inhibition of viability, times more effective than Les-6547 ([3]; DLD-1, MTT, 48 h, versus Les-6547): 2.5 times
IC50 [3, 4]: 1.94 to 16.9 µM
IC50 [3, 5]: 16.9 ± 3.32 µM
IC50 [3, 6]: 1.94 ± 0.05 µM
IC50 [3, 7]: 5.19 ± 1.14 µM

Source: article PMC11941218, “Juglone-Bearing Thiopyrano[2,3-d]thiazoles Induce Apoptosis in Colorectal Adenocarcinoma Cells” (Cells, 2025)
